Data: ChEMBL document CHEMBL1697781, “Assessment of the health effects of chemicals in humans: II. Construction of an adverse effects database for QSAR modeling” (Curr Drug Discov Technol, 2004)

How the values were obtained:
Conditions in all cases: human; call rule not given here
Hepatotoxicity [1] = assay: FDA HLAED, gamma-glutamyl transferase (GGT) increase
Hepatotoxicity [2] = assay: FDA HLAED, liver enzyme composite activity
Hepatotoxicity [3] = assay: FDA HLAED, serum glutamic pyruvic transaminase (SGPT) increase
Hepatotoxicity [4] = assay: FDA HLAED, serum glutamic oxaloacetic transaminase (SGOT) increase
Hepatotoxicity [5] = assay: FDA HLAED, lactate dehydrogenase (LDH) increase
Hepatotoxicity [6] = assay: FDA HLAED, alkaline phosphatase increase
For GGT Increase - Index Value in this document: reference of the scale not given here.
For LDH Increase - Index Value in this document: reference of the scale not given here.

FC(F)OC(F)C(F)(F)F (centres undefined)
GGT Increase - Activity Score (Hepatotoxicity [1]): Inactive
GGT Increase - Index Value (Hepatotoxicity [1]): 0.5
GGT Increase - Number of Reports (Hepatotoxicity [1]): < 4
Composite Activity - Active (Hepatotoxicity [2]): 0
Composite Activity - Marginal (Hepatotoxicity [2]): 0
Composite Activity - Score (Hepatotoxicity [2]): Inactive
SGPT Increase - Activity Score (Hepatotoxicity [3]): Inactive
SGPT Increase - Index Value (Hepatotoxicity [3]): 0.8
SGPT Increase - Number of Reports (Hepatotoxicity [3]): < 4
SGOT Increase - Activity Score (Hepatotoxicity [4]): Inactive
SGOT Increase - Index Value (Hepatotoxicity [4]): 1.3
SGOT Increase - Number of Reports (Hepatotoxicity [4]): >= 4
LDH Increase - Activity Score (Hepatotoxicity [5]): Inactive
LDH Increase - Index Value (Hepatotoxicity [5]): 0.5
LDH Increase - Number of Reports (Hepatotoxicity [5]): < 4
Alkaline Phosphatase Increase - Activity Score (Hepatotoxicity [6]): Inactive
Alkaline Phosphatase Increase - Index Value (Hepatotoxicity [6]): 0.3
Alkaline Phosphatase Increase - Number of Reports (Hepatotoxicity [6]): < 4

COc1ccc(CCN(C)CCCC(C#N)(c2ccc(OC)c(OC)c2)C(C)C)cc1OC (centres undefined)
GGT Increase - Activity Score (Hepatotoxicity [1]): Inactive
GGT Increase - Number of Reports (Hepatotoxicity [1]): < 4
Composite Activity - Active (Hepatotoxicity [2]): 0
Composite Activity - Marginal (Hepatotoxicity [2]): 0
Composite Activity - Score (Hepatotoxicity [2]): Inactive
SGPT Increase - Activity Score (Hepatotoxicity [3]): Inactive
SGPT Increase - Number of Reports (Hepatotoxicity [3]): < 4
LDH Increase - Activity Score (Hepatotoxicity [5]): Inactive
LDH Increase - Number of Reports (Hepatotoxicity [5]): < 4
Alkaline Phosphatase Increase - Activity Score (Hepatotoxicity [6]): Inactive
Alkaline Phosphatase Increase - Number of Reports (Hepatotoxicity [6]): >= 4

O=P1(N(CCCl)CCCl)NCCCO1 (centres undefined) [CYCLOPHOSPHAMIDE ANHYDROUS]
Composite Activity - Active (Hepatotoxicity [2]; Liver): 4
Composite Activity - Marginal (Hepatotoxicity [2]; Liver): 0
Composite Activity - Score (Hepatotoxicity [2]; Liver): Active
SGPT Increase - Activity Score (Hepatotoxicity [3]): Active
SGPT Increase - Index Value (Hepatotoxicity [3]): 8.5
SGPT Increase - Number of Reports (Hepatotoxicity [3]): >= 4
SGOT Increase - Activity Score (Hepatotoxicity [4]): Active
SGOT Increase - Index Value (Hepatotoxicity [4]): 8.5
SGOT Increase - Number of Reports (Hepatotoxicity [4]): >= 4
LDH Increase - Activity Score (Hepatotoxicity [5]): Active
LDH Increase - Index Value (Hepatotoxicity [5]): 8.5
LDH Increase - Number of Reports (Hepatotoxicity [5]): >= 4
Alkaline Phosphatase Increase - Activity Score (Hepatotoxicity [6]): Active
Alkaline Phosphatase Increase - Index Value (Hepatotoxicity [6]): 4.6
Alkaline Phosphatase Increase - Number of Reports (Hepatotoxicity [6]): >= 4

NC1=NC(=O)C(c2ccccc2)O1 (centres undefined) [PEMOLINE]
Composite Activity - Active (Hepatotoxicity [2]): 4
Composite Activity - Marginal (Hepatotoxicity [2]): 0
Composite Activity - Score (Hepatotoxicity [2]): Active
SGPT Increase - Activity Score (Hepatotoxicity [3]): Active
SGPT Increase - Index Value (Hepatotoxicity [3]): 23.5
SGPT Increase - Number of Reports (Hepatotoxicity [3]): >= 4
SGOT Increase - Activity Score (Hepatotoxicity [4]): Active
SGOT Increase - Index Value (Hepatotoxicity [4]): 22.7
SGOT Increase - Number of Reports (Hepatotoxicity [4]): >= 4
LDH Increase - Activity Score (Hepatotoxicity [5]): Active
LDH Increase - Index Value (Hepatotoxicity [5]): 6.2
LDH Increase - Number of Reports (Hepatotoxicity [5]): >= 4
Alkaline Phosphatase Increase - Activity Score (Hepatotoxicity [6]): Active
Alkaline Phosphatase Increase - Index Value (Hepatotoxicity [6]): 14
Alkaline Phosphatase Increase - Number of Reports (Hepatotoxicity [6]): >= 4

CO[C@H]1/C=C/O[C@@]2(C)Oc3c(C)c(O)c4c(O)c(c(/C=N/N5CCN(C)CC5)c(O)c4c3C2=O)NC(=O)/C(C)=C\C=C\[C@H](C)[C@H](O)[C@@H](C)[C@@H](O)[C@@H](C)[C@H](OC(C)=O)[C@@H]1C [RIFAMPIN]
Composite Activity - Active (Hepatotoxicity [2]): 1
Composite Activity - Marginal (Hepatotoxicity [2]): 3
Composite Activity - Score (Hepatotoxicity [2]): Marginally Active
SGPT Increase - Activity Score (Hepatotoxicity [3]): Marginally Active
SGPT Increase - Index Value (Hepatotoxicity [3]): No Shipping Units
SGPT Increase - Number of Reports (Hepatotoxicity [3]): >= 4
SGOT Increase - Activity Score (Hepatotoxicity [4]): Active
SGOT Increase - Index Value (Hepatotoxicity [4]): No Shipping Units
SGOT Increase - Number of Reports (Hepatotoxicity [4]): >= 4
LDH Increase - Activity Score (Hepatotoxicity [5]): Marginally Active
LDH Increase - Index Value (Hepatotoxicity [5]): No Shipping Units
LDH Increase - Number of Reports (Hepatotoxicity [5]): >= 4
Alkaline Phosphatase Increase - Activity Score (Hepatotoxicity [6]): Marginally Active
Alkaline Phosphatase Increase - Index Value (Hepatotoxicity [6]): No Shipping Units
Alkaline Phosphatase Increase - Number of Reports (Hepatotoxicity [6]): >= 4

CC(C)c1nc(CN(C)C(=O)N[C@H](C(=O)N[C@@H](Cc2ccccc2)C[C@H](O)[C@H](Cc2ccccc2)NC(=O)OCc2cncs2)C(C)C)cs1 [RITONAVIR]
GGT Increase - Number of Reports (Hepatotoxicity [1]): >= 4
SGPT Increase - Number of Reports (Hepatotoxicity [3]): >= 4
SGOT Increase - Number of Reports (Hepatotoxicity [4]): >= 4
LDH Increase - Number of Reports (Hepatotoxicity [5]): >= 4
Alkaline Phosphatase Increase - Number of Reports (Hepatotoxicity [6]): >= 4
